# Test results as given in PMC6941952, “A homogeneous bioluminescent immunoassay to probe cellular signaling pathway regulation” (Communications Biology, 2020).
# Where “and” joins values, the source holds several entries; their conditions need not be identical. Equal values may be shown once.
# Test system: phospho-IκBα (Ser32)
# Assay: NanoBiT cell-based immunoassay, phosphorylated IκBα in human primary mammary epithelial cells
# Details: for P-IkB Average: background subtracted; for P-IkB Raw data / P-IkB Subtract reagent background: listed as TNF
# Method: All cell lines used are from ATCC. […] Human Primary Mammary Epithelial Cells (#H-6035), Human Breast Tumor Epithelial Cells (#HC-6035), Complete Human Epithelial Cell Medium (#H6621), and Gelatin-Based Coating Solution (#H6950) were purchased from Cell Biologics. The cells were cultured according to the manufacturer’s procedure. All cells were grown at 37 °C in a 5% CO2 humidified incubator and passaged before reaching 80% cell confluency. Prior to each experiment, cells were counted by combining 30 µl of cell suspension with 30 µl of trypan blue. After gentle pipetting up and down to mix the cells and the dye, the cell number was determined using Bio-Rad TC 20 cell counter.
# Prior to NanoBiT Cell-Based Immunoassay, 50,000 cells were seeded in 160 µl of complete growth media per well of a 96-well plate and incubated overnight. The cells were checked under microscope and it was determined that 50,000 cells per well in 96-well plate is under 90% confluency for all cells tested. If necessary, the cell culture media were replaced with serum-free media after the cells were stably adherent on the plate and incubated overnight. To treat cells with activators or inhibitors, medium was changed to 30 µl of medium containing inhibitors. If activation of a specific pathway is needed, the cells were stimulated with 10 µl of medium containing activators. To lyse the cells, 10 µl of lysis buffer containing 0.1% digitonin diluted in 1X immunoassay buffer with protease and phosphatase inhibitors was added and the plates were mixed vigorously for 20 min. Then, 50 µl of an antibody mix containing two primary antibodies against the target protein and NanoBiT detecting antibodies (0.3 µl each per well), diluted in 1X immunoassay buffer was added to the lysates. The plates were incubated at 23 °C for 90 min, followed by the addition of 25 µl of Nano-Glo® reagent consisting of Nano-Glo® Luciferase Assay Substrate mixed with 1X immunoassay buffer. Luminescence was measured using a plate-reading luminometer.
# Single dose or dose response inhibitor treatments were performed prior to activation of the pathways as follows. For IκBα, the cells were treated in 30 µl medium with IKK16 or MG132 for 60 min before the addition of 10 µl of DMEM containing appropriate concentration of TNFα. To measure phosphorylation of AKT or STAT3, the corresponding NanoBiT immunoassays were developed with MCF-7 or A431 cells, respectively, according the same scheme used to develop the IκBα assay using the primary antibodies for AKT and STAT3 described in the reagents section. For the AKT assay, MCF-7 cells were incubated overnight in phenol-red free DMEM medium (Gibco #21063-029) without serum. Treatment with LY294002 was performed in 30 µl medium and cells were incubated for 60 min before the addition of 1 µM Insulin. To measure STAT3 phosphorylation, A431 cells were incubated overnight in DMEM medium without serum. […] After addition of the stimulators, the cells were incubated for additional times as follows. IκBα phosphorylation and degradation analyses required both time courses and single time points as described in figures. […] The NanoBiT immunoassay protocol was followed as described above.
# All 96-well assay plates were read using a GloMax® 96 Microplate Luminometer from Promega. The instrument was set to 0.5 s integration time. In order to obtain net change of signal, the reagent background values (signal from the well containing all reagent except primary antibodies) were subtracted from the sample values. To plot and analyze the data, Microsoft Excel and GraphPad Prism® Software were used. IC50 values were determined by using a nonlinear regression fit to a sigmoidal dose response (variable slope).
substance,measurement,setting,value
TNFα,P-IkB Average,TNF 2 min,5853
same,P-IkB Raw data,TNF 2 min,17220 and 16460 and 16920
same,P-IkB Subtract reagent background,TNF 2 min,6207 and 5447 and 5907
same,P-IkB Average,TNF 4 min,8003
same,P-IkB Raw data,TNF 4 min,18510 and 19530 and 19010
same,P-IkB Subtract reagent background,TNF 4 min,7497 and 8517
same,P-IkB Average,TNF 6 min,13540
same,P-IkB Raw data,TNF 6 min,23690 and 24890 and 25080
same,P-IkB Subtract reagent background,TNF 6 min,12677 and 13877
same,P-IkB Average,TNF 8 min,18690
same,P-IkB Raw data,TNF 8 min,28000 and 30000 and 31110
same,P-IkB Subtract reagent background,TNF 8 min,16987 and 18987
same,P-IkB Average,TNF 10 min,22970
same,P-IkB Raw data,TNF 10 min,33480 and 34070 and 34400
same,P-IkB Subtract reagent background,TNF 10 min,22467 and 23057
same,P-IkB Average,TNF 12 min,25163
same,P-IkB Raw data,TNF 12 min,35750 and 35400 and 37380
same,P-IkB Subtract reagent background,TNF 12 min,24737 and 24387
same,P-IkB Average,TNF 15 min,25267
same,P-IkB Raw data,TNF 15 min,35860 and 36040 and 36940
same,P-IkB Subtract reagent background,TNF 15 min,24847 and 25027 and 25927
same,P-IkB Average,TNF 30 min,18640
same,P-IkB Raw data,TNF 30 min,29280 and 29480 and 30200
same,P-IkB Subtract reagent background,TNF 30 min,18267 and 18467 and 19187
same,P-IkB Average,TNF 45 min,16850
same,P-IkB Raw data,TNF 45 min,28120 and 27980 and 27490
same,P-IkB Subtract reagent background,TNF 45 min,17107 and 16967 and 16477
same,P-IkB Average,TNF 60 min,19710
same,P-IkB Raw data,TNF 60 min,31240 and 30980 and 29950
same,P-IkB Subtract reagent background,TNF 60 min,20227 and 19967 and 18937
